The text below walks through data of patent publication US8067616B2 (Nereus Pharmaceuticals, Inc., priority 2006, dated 2011).

The target in assay [1] is caspase-like activity of purified rabbit 20S proteasomes (Oryctolagus cuniculus, UniProt G1T235). Put plainly: In vitro inhibition of caspase-like activity of purified rabbit muscle 20S proteasome (Z-LLE-AMC). The format is biochemical. The conditions noted are these: IC50 Values, purified rabbit 20S proteasome.
Assay [2] relates to chymotrypsin-like activity of the 20S proteasome in RPMI 8226 cells. Description: Chymotrypsin-like activity of proteasomes in RPMI 8226 cells after 1 hr exposure, measured in cell lysates (Suc-LLVY-AMC). It counts as cell-based, human. The note with it: for % inhibition of the 20S proteasome chymotrypsin-like activity in RPMI 8826 cells: 1 hr incubation. The procedure: RPMI 8226 (ATCC, CCL-155), the human multiple myeloma cell line, was cultured in RPMI 1640 medium supplemented with 2 mM L-Glutamine, 1% Penicillin/Streptomycin, 10 mM HEPES and 10% Fetal Bovine Serum at 37° C., 5% CO2 and 95% humidified air. To evaluate the inhibitory effects on the chymotrypsin-like activity of the 20S proteasome, test compounds prepared in DMSO were appropriately diluted in culture medium and added to 1×10^6/ml RMPI 8226 cells at final concentration of 1, 5 or 10 nM. DMSO was used as the vehicle control at a final concentration of 0.1%. Following 1 hr incubation of RMPI 8226 cells with the compounds, the cells were pelleted by centrifugation at 2,000 rpm for 10 sec at room temperature and washed 3× with ice-cold 1× Dubach's Phosphate-Buffered Saline (DPBS, Mediatech, Herndon, Va.). DPBS washed cells were lysed on ice for 15 min in lysis buffer (20 mM HEPES, 0.5 mM EDTA, 0.05% Triton X-100, pH 7.3) supplemented with protease inhibitor cocktail (Roche Diagnostics, Indianapolis, Ind.). Cell debris was pelleted by centrifugation at 14,000 rpm for 10 min, 4° C. and supernatants (=cell lysates) were transferred to a new tube. Protein concentration was determined by the BCA protein assay kit (Pierce Biotechnology, Rockford, Ill.). […] The reactions were initiated by the addition of 10 μL of 0.4 mM Suc-LLVY-AMC (prepared by diluting a 10 mM solution of the peptide in DMSO 1:25 with assay buffer) to 190 μL of the cell lysates in 96-well Costar microtiter plate and incubated in the Thermo Lab Systems Fluoroskan plate reader at 37° C. Fluorescence of the cleaved peptide substrate was measured at λex=390 nm and λem=460 nm. All data were collected every five minutes for 2 hour. The total protein used for each assay was 20 μg. The final concentration of Suc-LLVY-AMC and DMSO was 20 μM and 0.2%, respectively. After subtraction of the background (the values from wells containing buffer and substrate in the absence of cell lysate), the activity of test compound was expressed as % inhibition as normalized to the proteasome activity observed in the DMSO treated control cells.

Usually IC50 stands for the point on the concentration scale where inhibition reaches its midpoint. A high value points to lower potency.

For `C[C@@]12OC(=O)[C@]1([C@@H](O)[C@@H]1C=CCCC1)NC(=O)[C@@H]2CCCl` [XVI-1A, Salinosporamide A], the IC50 in assay [1] (XVI-1A obtained by fermentation) came to 387 nM; in assay [1] (XVI-1A obtained synthetically), 467 nM. Moreover, the “% inhibition of the 20S proteasome chymotrypsin-like activity in RPMI 8826 cells” value is 38% in assay [2] (fermentation XVI-1A, 1 nM); 86% in assay [2] (fermentation XVI-1A, 5 nM); 97% in assay [2] (fermentation XVI-1A, 10 nM); 32% in assay [2] (synthetic XVI-1A, 1 nM); 79% in assay [2] (synthetic XVI-1A, 5 nM); 96% in assay [2] (synthetic XVI-1A, 10 nM). Also, the “inhibition of the 20S proteasome chymotrypsin-like activity on exposure of RPMI 8226 cells” value in assay [2] (fermentation or synthetic XVI-1A, 1, 5 or 10 nM) is “dose-dependent inhibition”.
